Patent US20220071944A1, “Combination Treatment for Solid Tumors Using Docetaxel and a CYP3A Inhibitor” (Modra Pharmaceuticals B.V., priority 2018, published 2022)
Read-outs that look alike come from different tables or passages of the source.

Key:
[1] = Phase IB/IIA trial M17DOC in mCRPC: docetaxel plasma pharmacokinetics; parameters: species or system human; details: in vivo, po
Method: A multicenter clinical phase IB/IIA study was conducted in mCRPC (M17DOC), wherein ModraDoc006, an oral docetaxel formulation was combined with ritonavir (ModraDoc006/r), in metastasized castration-resistant prostate cancer (mCRPC).
The study included patients diagnosed with metastasized castration-resistant prostate cancer (mCRPC), dosed in a bi-daily once weekly (BIDW) dosing schedule at 4 dose levels (see table below).

[2] = weekly docetaxel 35 mg/m2 as 0.5 h intravenous infusion; cited from earlier work
[3] = Weekly intravenous docetaxel 35 mg/m2 pharmacokinetics (Baker et al. 2004); assay type: in vivo, human; details: 35 mg/m2 in 0.5 h vs oral in patients with solid tumors (not prostate)
[4] = IV docetaxel AUC in mCRPC vs other tumors (De Vries Schultink et al. meta-analysis); assay type: in vivo, human
[5] = every three weeks IV; cited from earlier work

docetaxel clearance in mCRPC patients vs patients with other solid tumors [1]: higher clearance
CMAX of intravenous docetaxel relative to oral ModraDoc006/r 30-20/100-100 [3]: ten-fold higher
ratio of AUCs for IV docetaxel in mCPRC patients vs other tumors ([4]; 1820/3300): 55%
AUC ([4]; male, human, in vivo, iv, weekly equivalent, mCRPC, read-out: weekly AUC of IV docetaxel in mCRPC patients (q3w AUC divided by 3)): ~0.6 µg·h/mL
SMILES: CC(=O)O[C@@]12CO[C@@H]1C[C@H](O)[C@@]1(C)C(=O)[C@H](O)C3=C(C)[C@@H](OC(=O)[C@H](O)[C@@H](NC(=O)OC(C)(C)C)c4ccccc4)C[C@@](O)([C@@H](OC(=O)c4ccccc4)[C@H]21)C3(C)C [docetaxel]
AUC [2]: 0.48 ± 0.41 µg·h/mL
CMAX [2]: 1930 ± 600 ng/mL
q3w AUC of IV docetaxel in mCRPC patients [5]: 1.82 µg·h/mL
